ChEMBL document CHEMBL1137914, “Optimizing the antibacterial activity of a lead structure discovered by "SAR by MS" technology” (Bioorg Med Chem Lett, 2004)
pIC50, pKd: −log10 of the molar value.

What was measured:
[1] = test system: Escherichia coli; test: (§1) In vitro dissociation constant of compound required for inhibition of Escherichia coli translation was determined; assay type: functional, organism-based
[2] = test system: Escherichia coli; test: In vitro dissociation constant of compound required for inhibition of Escherichia coli translation by 50% was determined; assay type: functional
[3] = test system: Escherichia coli; test: Antibacterial activity against Escherichia coli was determined at 100 uM; assay type: functional
[4] = test system: Staphylococcus aureus; test: Antibacterial activity against Staphylococcus aureus was determined at 100 uM; assay type: functional
[5] = test system: Escherichia coli; test: as §1; assay type: functional
[6] = test system: Escherichia coli; test: Minimal inhibitory concentration required against Escherichia coli ATCC 25922 was determined; values ranges from 6-13; assay type: functional
[7] = test system: Staphylococcus aureus; test: Minimal inhibitory concentration required against Staphylococcus aureus ATCC 13709 was determined; values ranges from […]; assay type: functional
[8] = test system: Escherichia coli; test: Minimal inhibitory concentration required against Escherichia coli ATCC 25922 was determined; values ranges from 13-25; assay type: functional
[9] = test system: Staphylococcus aureus; test: Minimal inhibitory concentration required against Staphylococcus aureus ATCC 13709 was determined; assay type: functional
[10] = test system: Staphylococcus aureus; test: Minimal inhibitory concentration required against Staphylococcus aureus ATCC 13709 was determined; values ranges from 50-100; assay type: functional
[11] = test system: Escherichia coli; test: Minimal inhibitory concentration required against Escherichia coli ATCC 25922 was determined; values ranges from 25-50; assay type: functional
[12] = test system: Streptococcus pyogenes; test: Minimal inhibitory concentration required against Streptococcus pyogenes was determined; values ranges from 3-6
[13] = test system: Proteus vulgaris; test: Minimal inhibitory concentration required against Proteus vulgaris was determined; values ranges from 50-100
[14] = test system: Staphylococcus aureus; test: Minimal inhibitory concentration required against Staphylococcus aureus ATCC 13709 was determined; values ranges from 3-6; assay type: functional
[15] = test system: Enterococcus faecalis; test: Minimal inhibitory concentration required against Enterococcus faecalis was determined; values ranges from 3-6

| pIC50 [1] | Compound | inhibition at 100 µM [3] | inhibition at 100 µM [4] | other results |
| --- | --- | --- | --- | --- |
| 4.85 | NCC[C@@H](NC(=O)c1ccc(-c2cccc(NC(=O)c3ccc4nc(O)c(O)nc4c3)c2)o1)C(=O)N1CCNCC1 | < 75% | < 75% | pKd [2]: 5.19 |
|  | C=CCNC(=O)c1ccc2nc(O)c(O)nc2c1 |  |  | pKd [5]: 3.82 |
| < 3.70 | CN(C)CCCOc1ccc(C(NC(=O)c2ccc3nc(O)c(O)nc3c2)C(=O)N2CCNCC2)cc1 (configuration not stated) | < 75% | < 75% |  |
|  | NCC[C@@H](NC(=O)c1ccc(-c2ccccc2)o1)C(=O)N1CCNCC1 |  |  | pKd [5]: 4.30 |
| 4.34 | NCC[C@@H](NC(=O)c1ccc(-c2cccc(NC(=O)c3cnc4ccccc4c3)c2)o1)C(=O)N1CCNCC1 | < 75% | < 75% |  |
| 6.00 | Cc1nc2ccc(C(=O)Nc3cccc(-c4ccc(C(=O)NC(C(=O)N5CCNCC5)c5ccc(OCCCN(C)C)cc5)o4)c3)cc2nc1C (configuration not stated) | < 75% | < 75% |  |
| < 4.00 | CN(C)CCCOc1ccc(C(NC(=O)c2ccc(-c3cccc(N)c3)o2)C(=O)N2CCNCC2)cc1 (configuration not stated) | < 75% | < 75% |  |
| < 4.00 | CN(C)CCCOc1ccc(C(NC(=O)c2ccc(-c3cccc(NC(=O)C4CCCCC4)c3)o2)C(=O)N2CCNCC2)cc1 (configuration not stated) | < 75% | < 75% |  |
| 5.30 | CN(C)CCCOc1ccc(C(NC(=O)c2ccc(-c3cccc(NC(=O)c4ccc5cc(Br)ccc5c4)c3)o2)C(=O)N2CCNCC2)cc1 (configuration not stated) |  |  | MIC [6]: < 13 µM; MIC [7]: < 25 µM |
| 6.11 | CCc1c(C)nc2ccc(C(=O)Nc3cccc(-c4ccc(C(=O)NC(C(=O)N5CCNCC5)c5ccc(OCCCN(C)C)cc5)o4)c3)cc2c1Cl (configuration not stated) |  |  | MIC [8]: < 25 µM; MIC [9]: > 100 µM |
| 4.40 | CN(C)CCCOc1ccc(C(NC(=O)c2ccc(-c3cccc(NC(=O)c4ccccc4)c3)o2)C(=O)N2CCNCC2)cc1 (configuration not stated) | < 75% | < 75% |  |
| 5.52 | CN(C)CCCOc1ccc(C(NC(=O)c2ccc(-c3cccc(NC(=O)c4ccc5nc(O)c(O)nc5c4)c3)o2)C(=O)N2CCNCC2)cc1 (configuration not stated) | < 75% | < 75% |  |
| 4.48 | CN(C)CCCOc1ccc(C(NC(=O)c2ccc(-c3cccc(NS(=O)(=O)c4ccc5nc(O)c(O)nc5c4)c3)o2)C(=O)N2CCNCC2)cc1 (configuration not stated) | < 75% | < 75% |  |
| < 4.00 | CN(C)CCCC(=O)Nc1cccc(-c2ccc(C(=O)N[C@H](CCN)C(=O)N3CCNCC3)o2)c1 | < 75% | < 75% |  |
| 5.00 | CN(C)CCCOc1ccc(C(NC(=O)c2ccc(-c3cccc(NC(=O)c4ccc5ccccc5c4)c3)o2)C(=O)N2CCNCC2)cc1 (configuration not stated) |  |  | MIC [10]: < 100 µM; MIC [11]: < 50 µM |
| < 4.00 | NCC[C@@H](NC(=O)c1ccc(-c2cccc(NC(=O)c3ccccn3)c2)o1)C(=O)N1CCNCC1 | < 75% | < 75% |  |
| < 4.00 | NCC[C@@H](NC(=O)c1ccc(-c2cccc(N)c2)o1)C(=O)N1CCNCC1 | < 75% | < 75% |  |

| pIC50 [1] | Compound | inhibition at 100 µM [3] | inhibition at 100 µM [4] | other results |
| --- | --- | --- | --- | --- |
| < 4.00 | NCC[C@@H](NC(=O)c1ccc(-c2cccc(NC(=O)c3nncs3)c2)o1)C(=O)N1CCNCC1 | < 75% | < 75% |  |
| 4.82 | Cc1nc2ccc(C(=O)Nc3cccc(-c4ccc(C(=O)N[C@H](CCN)C(=O)N5CCNCC5)o4)c3)cc2nc1C | < 75% | < 75% |  |
| 4.42 | CN(C)CCCOc1ccc(C(NC(=O)c2ccc(-c3cccc(NC(=O)c4ccccc4I)c3)o2)C(=O)N2CCNCC2)cc1 (configuration not stated) | < 75% | < 75% |  |
| 5.30 | CN(C)CCCOc1ccc(C(NC(=O)c2ccc(-c3cccc(NC(=O)c4cnc5ccccc5c4)c3)o2)C(=O)N2CCNCC2)cc1 (configuration not stated) | < 75% | < 75% |  |
| 5.70 | Cc1cc(Cl)c2cc(C(=O)Nc3cccc(-c4ccc(C(=O)NC(C(=O)N5CCNCC5)c5ccc(OCCCN(C)C)cc5)o4)c3)ccc2n1 (configuration not stated) | < 75% | < 75% |  |
| < 4.00 | NCC[C@@H](NC(=O)c1ccc(-c2cccc(NC(=O)c3cnccn3)c2)o1)C(=O)N1CCNCC1 | < 75% | < 75% |  |
| 5.22 | CN(C)CCCOc1ccc(C(NC(=O)c2ccc(-c3cccc(NC(=O)c4ccc5ncccc5c4)c3)o2)C(=O)N2CCNCC2)cc1 (configuration not stated) | < 75% | < 75% |  |
| 4.70 | CN(C)CCCOc1ccc(C(NC(=O)c2ccc(-c3cccc(NC(=O)c4ccccn4)c3)o2)C(=O)N2CCNCC2)cc1 (configuration not stated) | < 75% | < 75% |  |
| < 4.00 | CN(C)CCCOc1ccc(C(NC(=O)c2ccc(-c3cccc(NC(=O)CCCN(C)C)c3)o2)C(=O)N2CCNCC2)cc1 (configuration not stated) | < 75% | < 75% |  |
| 4.82 | CN(C)CCCOc1ccc(C(NC(=O)c2ccc(-c3cccc(NC(=O)c4cnccn4)c3)o2)C(=O)N2CCNCC2)cc1 (configuration not stated) | < 75% | < 75% |  |
| 5.00 | CN(C)CCCOc1ccc(C(NC(=O)c2ccc(-c3cccc(NC(=O)c4ccc5nc(O)c(O)nc5c4)c3)o2)C(N)=O)cc1 (configuration not stated) | < 75% | < 75% |  |
| < 4.00 | CC(=O)Nc1cccc(-c2ccc(C(=O)NC(C(=O)N3CCNCC3)c3ccc(OCCCN(C)C)cc3)o2)c1 (configuration not stated) | < 75% | < 75% |  |
| < 4.00 | NCC[C@@H](NC(=O)c1ccc(-c2cccc(NS(=O)(=O)c3ccc4nc(O)c(O)nc4c3)c2)o1)C(=O)N1CCNCC1 | < 75% | < 75% |  |
| 4.89 | CN(C)CCCOc1ccc(C(NC(=O)c2ccc(-c3cccc(NC(=O)c4nncs4)c3)o2)C(=O)N2CCNCC2)cc1 (configuration not stated) | < 75% | < 75% |  |
| 5.30 | CN(C)CCCOc1ccc(C(NC(=O)c2ccc(-c3cccc(NC(=O)c4ccc(Br)cc4)c3)o2)C(=O)N2CCNCC2)cc1 (configuration not stated) |  |  | MIC [6]: < 13 µM; MIC [7]: < 25 µM |
| 5.40 | CN(C)CCCOc1ccc(C(NC(=O)c2ccc(-c3cccc(NC(=O)c4ccc(Cl)c(Cl)c4)c3)o2)C(=O)N2CCNCC2)cc1 (configuration not stated) | < 75% | < 75% |  |

| Compound | pIC50 [1] | inhibition at 100 µM [3] | inhibition at 100 µM [4] | other results |
| --- | --- | --- | --- | --- |
| CN(C)CCCOc1ccc(C(NC(=O)c2ccc(-c3cccc(NC(=O)c4ccc(-c5ccccc5)cc4)c3)o2)C(=O)N2CCNCC2)cc1 (configuration not stated) | 5.05 |  |  | MIC [6]: < 13 µM; MIC [12]: < 6 µM; MIC [13]: < 100 µM; MIC [14]: < 6 µM; MIC [15]: < 6 µM |
